From patent publication US20150352114A1, “MITOTIC KINESIN Eg5 INHIBITING ANTICANCER AGENTS” (THE CLEVELAND CLINIC FOUNDATION, priority 2014, published 2015)

Legend:
[1] = molecular target: T1, Eg5 (Homo sapiens, UniProt P52732); details: cited from earlier work
T1 sequence (P52732 1-1056): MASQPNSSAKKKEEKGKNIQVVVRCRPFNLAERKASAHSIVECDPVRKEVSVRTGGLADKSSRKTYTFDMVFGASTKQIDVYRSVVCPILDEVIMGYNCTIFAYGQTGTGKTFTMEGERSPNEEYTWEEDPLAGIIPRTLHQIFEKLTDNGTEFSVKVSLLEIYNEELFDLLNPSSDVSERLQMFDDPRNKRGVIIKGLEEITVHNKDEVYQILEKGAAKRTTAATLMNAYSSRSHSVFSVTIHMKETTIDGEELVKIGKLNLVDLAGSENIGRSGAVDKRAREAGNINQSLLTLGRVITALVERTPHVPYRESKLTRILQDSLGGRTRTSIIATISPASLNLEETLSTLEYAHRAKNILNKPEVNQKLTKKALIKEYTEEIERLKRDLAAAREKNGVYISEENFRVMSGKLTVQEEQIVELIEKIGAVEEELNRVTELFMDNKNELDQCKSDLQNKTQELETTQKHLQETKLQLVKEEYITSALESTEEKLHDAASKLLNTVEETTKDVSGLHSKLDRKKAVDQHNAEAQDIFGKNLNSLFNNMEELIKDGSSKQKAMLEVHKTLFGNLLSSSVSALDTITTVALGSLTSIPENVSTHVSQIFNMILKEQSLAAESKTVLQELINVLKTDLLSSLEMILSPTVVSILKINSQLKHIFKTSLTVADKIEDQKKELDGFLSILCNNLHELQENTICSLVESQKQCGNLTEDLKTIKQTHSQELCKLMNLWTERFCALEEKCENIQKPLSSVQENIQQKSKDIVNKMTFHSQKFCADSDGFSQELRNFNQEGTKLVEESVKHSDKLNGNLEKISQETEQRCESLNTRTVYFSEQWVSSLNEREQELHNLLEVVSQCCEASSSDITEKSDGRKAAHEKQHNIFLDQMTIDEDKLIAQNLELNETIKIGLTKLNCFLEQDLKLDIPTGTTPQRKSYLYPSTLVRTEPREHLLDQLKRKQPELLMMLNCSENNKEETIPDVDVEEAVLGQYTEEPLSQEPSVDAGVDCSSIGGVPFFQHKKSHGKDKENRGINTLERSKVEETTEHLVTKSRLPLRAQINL

[2] = test system: matched GSCs and NSTCs; test: SubG1 (apoptotic) population by flow cytometry for propidium iodide; format: cell-based, human; details: 3 nM; four days; three xenograft patient specimens
Description: The half maximal effective concentration of ispinesib for acutely dissociated and MACS sorted matched GSCs and NSTCs was determined by plating, in triplicate, 1,000 cells per well of a 96 well plate pre-coated with GelTrex in growth-factor free Neuralbasal media. The next day, cells were exposed to 2-fold increasing concentrations of ispinesib spanning from 0 to 32 nM. Viability was measured at 72 hours using CellTiter-Glo ATP-based assay (Promega, Madison, Wis.) read on a luminometer (Perkin-Elmer, Waltham, Mass.). For long-term viability assays, 500 cells per well were plated in triplicate into 96-well plates as above. The next day, cells were exposed to 3 nM ispinesib or vehicle (DMSO) and viability was measured daily for 5 days using CellTiter-Glo. Day 0 reading were taken immediately after addition of drug or vehicle. SubG1 for GSCs and NSTCs was determined by flow cytometry for propidium iodide and gated as the events below the 2N G1 peak of the resulting histogram. Analysis was done following treatment of 100,000 cells with vehicle or 3 nM ispinesib. Cells were fixed at Day 0 through Day 4 in 100% cold ethanol and simultaneously processed for flow analysis with 20,000 events analyzed per condition.

[3] = test system: 08-387 GSCs; test: Nascent process analysis; format: cell-based, human; details: 200 nM; 6-hour time course; p<0.0001
Description: 08-387 GSCs enriched in interphase were seeded at 6,000 cells per well of a 6 well plate and allowed to adhere for 1 hour. Cells were then exposed to vehicle or 200 nM ispinesib and images recorded over a 6-hour period using the IncuCyte ZOOM (Essen Biosciences, Ann Arbor, Mich.). Process formation was measured using CellPlayer NeuroTrack Software Module (Essen Biosciences).

[4] = test system: human brain microvascular endothelial cells; test: Endothelial tube formation on Matrigel; format: cell-based; details: 200 nM; 6-hour time course
Description: Primary Human Brain Microvascular Endothelial Cells were purchased from Cell Systems (Kirkland, Wash.) and used at passages 3 through 6. Cells were maintained in EGM-2 MV media from Lonza (Walkersville, Md.) and stained with CellTracker™ Green CMFDA Dye from Invitrogen (Eugene, Oreg.) for fluorescent imaging. Tube formation assays were performed on Matrigel from Corning (Tewksbury, Mass.) in glass bottom 6-well plates from MatTek (Ashland, Mass.). Cells were plated at a density of 1.3×10^4 per cm^2 and imaged at the indicated times.

[5] = test system: cell lines; details: cited from earlier work
[6] = test system: GSCs from xenograft 3691; test: Intracranial implantation of pre-exposed GSCs (tumor initiation); format: in vivo, mice
Description: All animal studies described were approved by the Cleveland Clinic Foundation Institutional Animal Care and Use Committee and conducted in accordance with the NIH Guide for the Care and Use of Laboratory Animals. For subcutaneous tumor studies, 1×10^5 freshly dissociated GBM cells from a xenograft originally derived from a primary GBM patient specimen (3691) were injected into the flanks of 10 six week old female athymic nu/nu mice. Tumors were allowed to reach approximately 0.12 cm^3, at which point animals were randomized into either vehicle control (DMSO) group or ispinesib (10 mg/kg given daily for 7 consecutive days by intraperitoneal injection) (Selleck Chemicals, Houston, Tex.). Tumors were monitored and measured daily using perpendicular diameter measurements for 7 days. Tumor volume was calculated using the ellipsoid formula π/6×larger diameter×(smaller diameter)^2. After the last treatment on Day 7, tumors were removed and weighed then processed for immunofluorescence (as described below). For intracranial implantation studies to evaluate tumor initiation by GSCs, the cells were isolated as described below and pre-exposed to drug or vehicle either in vitro or in vivo. […] Mice were monitored daily for neurological impairment at which time they were sacrificed and brains removed to evaluate for tumor development.

Q: What does the source list for `Cc1ccc(C(=O)N(CCCN)[C@@H](c2nc3cc(Cl)ccc3c(=O)n2Cc2ccccc2)C(C)C)cc1` [ispinesib, N-(3-amino-propyl)-n-[R-1-(3-benzyl-7-choloro-4-oxo-3,4-dihydroquinazolin-2-yl)-2-methyl-propyl]-4-methyl-benzamide methanesulfonate]?
A: selectivity for Eg5 over other kinesins [1]: 40,000 times; subG1 population (surrogate marker for apoptosis) [2]: higher subG1 fraction over NSTCs; process length in GSCs [3]: appreciably attenuated; endothelial tube formation [4]: failed to properly organize into tubes; efficacy in cell lines tested [5]: nanomolar efficacy; tumor initiation ([6]; GSCs from subcutaneous tumors treated in vivo 3 days with 10 mg/kg, 1,000 or 10,000 cells per mouse): reduced their tumor initiation phenotype; secondary tumor initiation ([6]; GSCs pretreated in vitro 18 hours with 3 nM, 2,500 or 25,000 cells per mouse): significant impairment of secondary tumor initiation
